Results from patent US9549967B2, “Regulation of sodium channels by PLUNC proteins” (The University of North Carolina at Chapel Hill, priority 2009, dated 2017).

Key:
Assay type in all cases: cell-based
ENaC [1] = target: T1, ENaC (Homo sapiens, UniProt P37088+P51168+P51170); test: Transepithelial electrical resistance of human bronchial epithelial cultures (EVOM); conditions: washed cultures; 50 ng/ml SPLUNC1 for 30 min or amiloride; effects not additive
T1 construct: endogenous in cells; host or cells: primary human bronchial epithelial cultures
T1 sequence (P37088 1-669): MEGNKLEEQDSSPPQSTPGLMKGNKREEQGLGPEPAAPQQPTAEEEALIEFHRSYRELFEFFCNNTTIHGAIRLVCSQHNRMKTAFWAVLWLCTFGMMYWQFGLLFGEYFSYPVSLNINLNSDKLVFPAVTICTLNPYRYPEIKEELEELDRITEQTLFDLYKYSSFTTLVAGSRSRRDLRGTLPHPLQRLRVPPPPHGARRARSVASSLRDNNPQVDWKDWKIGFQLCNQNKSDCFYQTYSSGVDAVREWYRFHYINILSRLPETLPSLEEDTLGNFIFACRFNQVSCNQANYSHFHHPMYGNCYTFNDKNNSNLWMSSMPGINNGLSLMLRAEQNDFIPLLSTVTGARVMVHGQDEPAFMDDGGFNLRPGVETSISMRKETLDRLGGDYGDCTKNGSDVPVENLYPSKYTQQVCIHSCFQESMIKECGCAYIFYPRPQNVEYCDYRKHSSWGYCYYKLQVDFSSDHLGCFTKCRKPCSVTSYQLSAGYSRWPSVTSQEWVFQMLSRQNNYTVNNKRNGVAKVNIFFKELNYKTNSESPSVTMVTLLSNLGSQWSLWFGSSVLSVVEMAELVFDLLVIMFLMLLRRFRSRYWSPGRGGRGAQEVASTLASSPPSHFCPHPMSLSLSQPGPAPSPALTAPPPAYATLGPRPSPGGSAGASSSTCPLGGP
T1 sequence (P51168 1-640): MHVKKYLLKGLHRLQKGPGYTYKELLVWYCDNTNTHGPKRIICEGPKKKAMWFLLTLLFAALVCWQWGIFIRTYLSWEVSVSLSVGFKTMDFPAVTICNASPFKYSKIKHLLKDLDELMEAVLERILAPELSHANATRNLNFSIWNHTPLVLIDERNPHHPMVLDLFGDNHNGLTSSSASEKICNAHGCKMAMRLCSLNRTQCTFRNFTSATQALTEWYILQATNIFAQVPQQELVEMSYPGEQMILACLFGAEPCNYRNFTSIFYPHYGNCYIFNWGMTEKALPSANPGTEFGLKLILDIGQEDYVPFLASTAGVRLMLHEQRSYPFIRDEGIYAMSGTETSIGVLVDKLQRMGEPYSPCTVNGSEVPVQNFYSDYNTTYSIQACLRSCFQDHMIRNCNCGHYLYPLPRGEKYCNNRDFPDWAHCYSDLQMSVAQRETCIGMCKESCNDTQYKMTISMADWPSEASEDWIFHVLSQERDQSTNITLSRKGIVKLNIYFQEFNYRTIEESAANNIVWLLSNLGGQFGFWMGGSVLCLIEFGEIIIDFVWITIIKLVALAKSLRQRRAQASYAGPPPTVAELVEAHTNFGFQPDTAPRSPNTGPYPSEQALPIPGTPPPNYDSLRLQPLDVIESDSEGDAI
T1 sequence (P51170 1-649): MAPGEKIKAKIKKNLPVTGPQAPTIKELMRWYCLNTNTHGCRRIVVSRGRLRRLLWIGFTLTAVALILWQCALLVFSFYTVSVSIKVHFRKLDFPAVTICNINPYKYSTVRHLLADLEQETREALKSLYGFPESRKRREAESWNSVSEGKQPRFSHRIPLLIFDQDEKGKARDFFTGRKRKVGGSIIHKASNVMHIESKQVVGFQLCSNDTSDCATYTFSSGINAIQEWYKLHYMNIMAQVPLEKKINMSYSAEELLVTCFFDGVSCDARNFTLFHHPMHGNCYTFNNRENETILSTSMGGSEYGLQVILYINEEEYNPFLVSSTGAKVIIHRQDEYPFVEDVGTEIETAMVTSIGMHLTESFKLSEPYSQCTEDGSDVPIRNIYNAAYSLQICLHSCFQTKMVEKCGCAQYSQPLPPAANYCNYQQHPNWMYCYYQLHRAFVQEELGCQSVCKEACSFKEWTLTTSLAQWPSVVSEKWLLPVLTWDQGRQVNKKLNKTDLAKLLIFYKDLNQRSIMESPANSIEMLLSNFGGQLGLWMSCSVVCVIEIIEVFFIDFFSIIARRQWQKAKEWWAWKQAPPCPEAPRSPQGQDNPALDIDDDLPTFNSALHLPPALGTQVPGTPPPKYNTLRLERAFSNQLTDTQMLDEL
Source text: (§1) Tissue procurement and cell culture: Cells were harvested by enzymatic digestion from human bronchial tissue as previously described under a protocol approved by the UNC School of Medicine IRB (Tarran et al., J. Gen. Physiol. 127:591 (2006)). Human excess donor lungs and excised recipient lungs were obtained at the time of lung transplantation from portions of main stem or […] bronchi and cells were harvested by enzymatic digestion. All preparations were maintained at an air-liquid interface in a modified bronchial epithelial medium and used 2-5 weeks after seeding on 12 mm T-Clear inserts (Corning Costar) coated with human placental type VI collagen (Sigma). Phosphate buffered saline (PBS) was used for washing human bronchial epithelial culture mucosal surfaces.
(§2) Microelectrode studies. A single-barreled potential difference-sensing electrode was placed in the airway surface liquid by micromanipulator and used in conjunction with a macroelectrode in the serosal solution to measure transepithelial voltage using a voltmeter (World Precision Instruments). […] Transepithelial resistance was routinely measured using the EVOM system (WPI) as previously described (Tarran et al., J. Gen. Physiol. 127:591 (2006)).

ENaC [2] = target: T1, ENaC; test: Transepithelial voltage under thin film conditions in human bronchial epithelial cultures (microelectrode); conditions: n=12; FIG. 4 legend: 100 mM amiloride
Source text: as §1, §2

CFTR = target: T2, CFTR (Homo sapiens, UniProt P13569); test: CFTR activity in Xenopus oocytes co-expressing CFTR and β2 adrenergic receptor; conditions: 10 μM isoproterenol, β2AR co-expressed
T2 construct: expressed in transfected cells; host or cells: Xenopus laevis oocytes
Method: (§3) Oocyte studies. Xenopus laevis oocytes were harvested and injected as described (Donaldson, et al., J. Biol. Chem. 277:8338 (2002)). Defolliculated healthy stage V-VI oocytes were injected with 0.3 ng of cRNA of each ENaC subunit. Injected oocytes were kept in modified Barth's saline (in mM: 88 NaCl, 1 KCl, 2.4 NaHCO3, 0.3 Ca(NO3)2, 0.41 CaCl2, 0.82 MgSO4, and 15 HEPES, adjusted to pH 7.35 with Tris). Oocytes were studied 24 hr after injection using the two electrode voltage clamp technique as previously described (Donaldson, et al., J. Biol. Chem. 277:8338 (2002)). Oocytes were clamped at a holding potential of […]. The change in amiloride-sensitive whole cell current as an indicator of ENaC activity was determined by subtracting the corresponding current value measured in the presence of 10 μM amiloride from that measured before the application of amiloride.
In both cases, we co-expressed CFTR with the β2 adrenergic receptor (β2AR) which can be stimulated with isoproterenol to raise cAMP and stimulate CFTR (Uezono et al., Receptors Channels 1:233 (1993)).

αβγENaC = target: T3, αβγENaC (Rattus norvegicus, UniProt P37089+P37090+P37091); test: Amiloride-sensitive whole cell current in Xenopus laevis oocytes expressing ENaC (two electrode voltage clamp); conditions: co-expression with α,β,γ ENaC in oocytes, FIG. 13
T3 construct: expressed in transfected cells; host or cells: Xenopus laevis oocytes (cRNA injection)
T3 sequence (P37089 1-698): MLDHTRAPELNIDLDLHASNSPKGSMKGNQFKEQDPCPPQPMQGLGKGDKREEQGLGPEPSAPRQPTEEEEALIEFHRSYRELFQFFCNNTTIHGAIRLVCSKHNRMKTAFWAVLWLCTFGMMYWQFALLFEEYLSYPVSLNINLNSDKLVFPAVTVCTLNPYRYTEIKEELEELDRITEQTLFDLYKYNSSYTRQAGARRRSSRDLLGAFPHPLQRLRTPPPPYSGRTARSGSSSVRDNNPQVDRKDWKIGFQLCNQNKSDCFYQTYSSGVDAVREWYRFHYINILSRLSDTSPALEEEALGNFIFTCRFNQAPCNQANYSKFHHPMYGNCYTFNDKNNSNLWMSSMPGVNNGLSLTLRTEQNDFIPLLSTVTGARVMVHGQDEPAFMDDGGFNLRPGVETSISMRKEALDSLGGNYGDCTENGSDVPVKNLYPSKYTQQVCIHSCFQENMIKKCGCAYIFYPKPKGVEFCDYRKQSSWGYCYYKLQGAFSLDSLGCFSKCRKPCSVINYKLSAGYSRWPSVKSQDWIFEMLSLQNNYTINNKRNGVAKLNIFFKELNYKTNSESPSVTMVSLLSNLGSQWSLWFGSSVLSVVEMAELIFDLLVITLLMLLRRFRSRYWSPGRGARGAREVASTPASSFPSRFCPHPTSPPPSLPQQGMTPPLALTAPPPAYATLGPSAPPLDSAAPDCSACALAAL
T3 sequence (P37090 1-638): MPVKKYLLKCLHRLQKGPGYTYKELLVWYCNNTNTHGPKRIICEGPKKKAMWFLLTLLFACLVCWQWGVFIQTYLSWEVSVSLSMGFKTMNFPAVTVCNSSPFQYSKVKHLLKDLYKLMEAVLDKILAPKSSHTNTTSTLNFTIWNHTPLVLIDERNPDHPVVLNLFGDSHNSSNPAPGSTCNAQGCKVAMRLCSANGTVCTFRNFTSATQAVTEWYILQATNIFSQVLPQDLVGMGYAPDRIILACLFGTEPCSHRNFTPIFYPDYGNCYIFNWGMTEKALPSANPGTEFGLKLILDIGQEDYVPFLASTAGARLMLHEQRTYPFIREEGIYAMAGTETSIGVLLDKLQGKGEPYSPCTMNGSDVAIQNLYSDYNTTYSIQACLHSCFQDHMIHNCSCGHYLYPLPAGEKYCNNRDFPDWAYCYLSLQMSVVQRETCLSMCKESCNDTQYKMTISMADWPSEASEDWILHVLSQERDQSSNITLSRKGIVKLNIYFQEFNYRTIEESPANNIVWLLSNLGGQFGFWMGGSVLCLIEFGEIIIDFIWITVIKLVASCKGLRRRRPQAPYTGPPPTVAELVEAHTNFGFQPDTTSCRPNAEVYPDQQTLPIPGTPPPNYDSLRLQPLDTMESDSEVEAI
T3 sequence (P37091 1-650): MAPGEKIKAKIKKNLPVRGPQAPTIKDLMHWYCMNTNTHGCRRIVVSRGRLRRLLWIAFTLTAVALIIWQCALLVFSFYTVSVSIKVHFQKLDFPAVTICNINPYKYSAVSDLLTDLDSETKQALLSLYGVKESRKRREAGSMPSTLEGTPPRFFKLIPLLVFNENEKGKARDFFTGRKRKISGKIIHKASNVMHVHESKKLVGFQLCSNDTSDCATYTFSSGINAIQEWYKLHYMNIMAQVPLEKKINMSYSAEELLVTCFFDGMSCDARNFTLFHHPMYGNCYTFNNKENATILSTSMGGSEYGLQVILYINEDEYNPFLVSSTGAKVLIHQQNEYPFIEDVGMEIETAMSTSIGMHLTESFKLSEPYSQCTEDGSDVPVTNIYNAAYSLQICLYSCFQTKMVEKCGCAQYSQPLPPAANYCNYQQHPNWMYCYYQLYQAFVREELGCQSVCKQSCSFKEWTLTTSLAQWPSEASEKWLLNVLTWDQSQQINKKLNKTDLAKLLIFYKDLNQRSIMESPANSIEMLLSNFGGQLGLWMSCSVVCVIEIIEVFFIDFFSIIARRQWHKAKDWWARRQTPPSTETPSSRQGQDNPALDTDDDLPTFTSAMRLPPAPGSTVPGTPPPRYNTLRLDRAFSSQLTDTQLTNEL
Method: as §3

T2 sequence (P13569 whole entry, species assumed): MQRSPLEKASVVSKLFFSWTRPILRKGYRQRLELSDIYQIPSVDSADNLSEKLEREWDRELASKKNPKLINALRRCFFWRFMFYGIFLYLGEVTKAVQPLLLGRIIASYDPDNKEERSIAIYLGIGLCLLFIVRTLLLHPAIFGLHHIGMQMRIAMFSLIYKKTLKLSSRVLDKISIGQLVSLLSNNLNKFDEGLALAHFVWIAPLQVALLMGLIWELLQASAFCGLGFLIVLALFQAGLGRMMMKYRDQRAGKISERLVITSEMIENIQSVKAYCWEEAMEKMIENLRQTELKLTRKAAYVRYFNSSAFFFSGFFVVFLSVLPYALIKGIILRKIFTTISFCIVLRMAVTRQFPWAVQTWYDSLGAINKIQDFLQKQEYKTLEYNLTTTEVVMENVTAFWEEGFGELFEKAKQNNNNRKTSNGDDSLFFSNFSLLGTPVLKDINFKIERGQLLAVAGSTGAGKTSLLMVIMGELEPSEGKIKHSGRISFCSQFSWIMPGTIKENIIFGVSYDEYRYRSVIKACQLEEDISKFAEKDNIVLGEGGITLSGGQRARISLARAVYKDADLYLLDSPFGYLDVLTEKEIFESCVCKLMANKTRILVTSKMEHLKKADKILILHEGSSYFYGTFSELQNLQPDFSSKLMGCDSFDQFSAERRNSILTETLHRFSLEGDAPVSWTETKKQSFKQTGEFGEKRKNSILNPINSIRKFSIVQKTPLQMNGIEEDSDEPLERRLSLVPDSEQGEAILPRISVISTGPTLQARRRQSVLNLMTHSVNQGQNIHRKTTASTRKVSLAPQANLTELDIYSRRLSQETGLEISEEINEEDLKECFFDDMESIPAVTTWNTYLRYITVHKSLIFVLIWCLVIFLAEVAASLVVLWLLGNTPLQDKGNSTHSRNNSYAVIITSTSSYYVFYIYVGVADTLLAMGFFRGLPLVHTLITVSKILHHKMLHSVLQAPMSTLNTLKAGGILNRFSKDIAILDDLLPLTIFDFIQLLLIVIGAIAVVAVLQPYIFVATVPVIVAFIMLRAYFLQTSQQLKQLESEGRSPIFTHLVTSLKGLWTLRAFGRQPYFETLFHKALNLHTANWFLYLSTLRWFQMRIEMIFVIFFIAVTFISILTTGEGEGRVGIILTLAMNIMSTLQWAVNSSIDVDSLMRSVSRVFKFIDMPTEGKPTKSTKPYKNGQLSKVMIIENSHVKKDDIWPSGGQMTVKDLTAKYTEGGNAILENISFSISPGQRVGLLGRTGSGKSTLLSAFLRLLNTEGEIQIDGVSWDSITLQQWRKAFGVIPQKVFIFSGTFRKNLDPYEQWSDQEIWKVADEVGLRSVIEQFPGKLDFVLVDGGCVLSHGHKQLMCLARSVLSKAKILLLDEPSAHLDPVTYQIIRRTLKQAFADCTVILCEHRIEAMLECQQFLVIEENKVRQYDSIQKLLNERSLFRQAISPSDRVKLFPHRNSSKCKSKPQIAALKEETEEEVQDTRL

N=C(N)NC(=O)c1nc(Cl)c(N)nc1N [amiloride, reference compound]
increase of the transepithelial electrical resistance (ENaC [1]): ~33%
reduction of the transepithelial voltage (ENaC [2]): 54%

CC(C)NCC(O)c1ccc(O)c(O)c1 (centres unmarked) [isoproterenol, reference compound]
CFTR activation (CFTR): robustly activated

B1: LPLUNC1: long PLUNC family member co-expressed in oocytes (protein)
chain: TLSPTAVLILGPKVIKEKLTQELKDHNATSILQQLPLLSAMREKPAGGIPVLGSLVNTVLKHIIWLKVITANILQLQVKPSANDQELLVKIPLDMVAGFNTPLVKTIVEFHMTTEAQATIRMDTSASGPTRLVLSDCATSHGSLRIQLLHKLSFLVNALAKQVMNLLVPSLPNLVKNQLCPVIEASFNGMYADLLQLVKVPISLSIDRLEFDLLYPAIKGDTIQLYLGAKLLDSQGKVTKWFNNSAASLTMPTLDNIPFSLIVSQDVVKAAVAAVLSPEEFMVLLDSVLPESAHRLKSSIGLINEKAADKLGSTQIVKILTQDTPEFFIDQGHAKVAQLIVLEVFPSSEALRPLFTLGIEASSEAQFYTKGDQLILNLNNISSDRIQLMNSGIGWFQPDVLKNIITEIIHSILLPNQNGKLRSGVPVSLVKALGFEAAESSLTKDALVLTPASLWKPSSPVSQ
reduction of amiloride-sensitive ENaC current relative to CTRL (significance) (αβγENaC): no significant ENaC current reduction

B2: SPLUNC2: human SPLUNC2 protein (SEQ ID NO:2), co-expressed in oocytes (protein, listed as Homo sapiens)
chain: MLQLWKLVLLCGVLTGTSESLLDNLGNDLSNVVDKLEPVLHEGLETVDNTLKGILEKLKVDLGVLQKSSAWQLAKQKAQEAEKLLNNVISKLLPTNTDIFGLKISNSLILDVKAEPIDDGKGLNLSFPVTANVTVAGPIIGQIINLKASLDLLTAVTIETDPQTHQPVAVLGECASDPTSISLSLLDKHSQIINKFVNSVINTLKSTVSSLLQKEICPLIRIFIHSLDVNVIQQVVDNPQHKTQLQTLI
reduction of amiloride-sensitive ENaC current relative to CTRL (significance) (αβγENaC): borderline significance
